Measured values taken from patent US4617292A, “Pharmaceutical compositions and method for inhibiting histamine release tocopheryl glycoside” (Sunstar Kabushiki Kaisha, priority 1984, dated 1986).
Where two headings read alike, the source gives them in different places.

What was measured:
[1] = tested on: mast cells; test: Inhibition of histamine release from mast cells due to an antigen-antibody reaction (in vitro; ovalbumin-sensitized); type: cell-based, Wister male rats; conditions: Mast cell; rat peritoneal mast cells; antigenic ovalbumin 10^-4 g/ml; 5 min pre-incubation, 10 min incubation at 37° C.; corrected for spontaneous release; read-out: concentration showing 50% inhibition of histamine release
[2] = Acute toxicity (LD50); conditions: in vivo
[3] = ip, read-out: LD50 values (i.p.)
[4] = po, read-out: LD50 values (p.o.)

| SMILES | IC50 [1] | LD50 [2, 3] | LD50 [2, 4] |
| --- | --- | --- | --- |
| Cc1c(C)c2c(c(C)c1O[C@@H]1O[C@H](CO)[C@@H](O)[C@H](O)[C@@H]1O)CCC(C)(CCCC(C)CCCC(C)CCCC(C)C)O2 (mixture of isomers) [dl-α-tocopherylmannoside, dl-α-Tocopherylmannoside] | ~15 µg/mL | > 500 mg/kg | > 5000 mg/kg |
| Cc1c(C)c2c(c(C)c1OC1O[C@H](CO)[C@@H](O)[C@H](O)[C@H]1O)CCC(C)(CCCC(C)CCCC(C)CCCC(C)C)O2 (mixture of isomers) [dl-α-tocopherylglucoside, dl-α-Tocopherylglucoside] | ~50 µg/mL | > 500 mg/kg | > 5000 mg/kg |
